Legend:
[1] = phenyl-1,4-benzoquinone (PBQ) induced writhing test (analgesic effect); type: in vivo, KTC-ICR rats; conditions: Mus musculus
Method: (§1) The physiological activities of the compounds of the present invention prepared according to Example 1 to 6 were measured by employing acetic acid or phenyl-1,4-benzoquinone (PBQ) induced writhing test method.
(§2) In case of the acetic acid-induced writhing test, KTC-ICR […] (available from animal laboratory of Korea Research Institute of Chemical Technology) each having a body weight of 20-25 g were used, while in the PBQ induced writhing test, KTC-ICR […] each having a body weight of 14-18 g were employed. A group consisting of 8 mice which had been adjusted to the testing environment for a week were used in determining the effects of each dosage of a test compound. Water and food were given frelly and illumination was maintained on a 12-hour cycle.
(§3) Test solutions were prepared by dissolving one of the final products obtained in Examples 1 to 6 in distilled water containing 1% of Tween and 5% ethanol in a pre-determined concentration. The test solutions were used after serial dilution depending on each dosage.
(§4) The test solutions were […] administered in a dose of 0.1 ml per 10 g of a body weight. 0.1 ml of 1% acetic acid solution or 0.1 ml of 0.02% PBQ solution was administered […] or after 30 minutes in case of subcutaneous injection.
(§5) Then, the number of writhings generated during a period of 10 minutes after 3 minutes from the administration of acetic acid was measured. in case of the administration of PBQ, the number of writhings generated during a period of 5 minutes after 5 minutes from the administration was measured.
(§6) For a comparison purpose, initially, distilled water containing 1% of Tween and 5% ethanol alone was administered to the control group. Then, the control groups were subjeted the same procedure as the test groups.
(§7) The number of writhings suffered by the test group was compared with that of the control group; and the analgesic effect was measured in terms of the percentage of inhibition of writhing (I.W.). [formula] wherein: A is the number of writhings suffered by the control group; and
(§8) B is the number of writhings suffered by the test group.
(§9) I.W. values for each dosage were calculated by employing regression analysis. The amount of a test compound which is required in reducing the frequency of writhings to the 50% level of that generated by the control group, i.e., B=0.5A or I.W.=50%, is designated as ED50 (mg/kg of a body weight). Therefore, a lower value of ED50 represents a higher analgesic effect of the tested compound.

[2] = acetic acid-induced writhing test (analgesic effect); type: in vivo, KTC-ICR rats; conditions: Mus musculus
Method: as §1, §2, §3, §4, §5, §6, §7, §8, §9

[3] = Toxicity test: behavioral changes in the test animals; type: in vivo; conditions: score; for Convulsion / Salivation / Urination: normal value 0; for Dyspnoea / Ptosis / Sedation / Vasodilation: normal value 4
[4] = PBQ, dose reducing writhing to 50% of control, read-out: ED50
[5] = acetic acid, dose reducing writhing to 50% of control, read-out: ED50

CC(=O)Oc1ccccc1C(=O)O [Aspirin, acetylsalicylic acid]
ED50 [1]: 71.4 mg/kg

COc1cc(CNC(=O)CCCC/C=C/C(C)C)ccc1O [Capsaicin, N-vanillyl-trans-8-methyl-6-nonenamide, reference compound]
ED50 [2]: 1.34 mg/kg

COc1cc(CC(=O)NCCCc2ccc(C)c(C)c2)ccc1OCCN [Control, reference compound]
Convulsion ([3]; 0.25 mg/kg): 1
Salivation ([3]; 0.25 mg/kg): 0
Urination ([3]; 0.25 mg/kg): 0
Dyspnoea ([3]; 0.25 mg/kg): 5
Ptosis ([3]; 0.25 mg/kg): 6
Sedation ([3]; 0.25 mg/kg): 6
Vasodilation ([3]; 0.25 mg/kg): 5
Convulsion ([3]; 0.5 mg/kg): 1
Salivation ([3]; 0.5 mg/kg): 0
Urination ([3]; 0.5 mg/kg): 0
Dyspnoea ([3]; 0.5 mg/kg): 6
Ptosis ([3]; 0.5 mg/kg): 7
Sedation ([3]; 0.5 mg/kg): 7
Vasodilation ([3]; 0.5 mg/kg): 5
Convulsion ([3]; 1 mg/kg): 1
Salivation ([3]; 1 mg/kg): 0
Urination ([3]; 1 mg/kg): 0
Dyspnoea ([3]; 1 mg/kg): 6
Ptosis ([3]; 1 mg/kg): 7
Sedation ([3]; 1 mg/kg): 7
Vasodilation ([3]; 1 mg/kg): 6

COc1cc(CC(=O)NCCOc2ccc(C)c(C)c2)ccc1OCCN [Example 1, N-{2-(3,4-dimethylphenoxy)ethyl}-4-(2-aminoethoxy)-3-methoxyphenylacetamide]
ED50 [1, 4]: 9.53 mg/kg

COc1cc(CC(=O)NCCCOc2ccc(C)c(C)c2)ccc1OCCN [Example 2, N-{3-(3,4-dimethylphenoxy)propyl}-4-(2-aminoethoxy)-3-methoxyphenylacetamide]
Convulsion ([3]; 2.5 mg/kg): 0
Salivation ([3]; 2.5 mg/kg): 0
Urination ([3]; 2.5 mg/kg): 0
Dyspnoea ([3]; 2.5 mg/kg): 4
Ptosis ([3]; 2.5 mg/kg): 4
Sedation ([3]; 2.5 mg/kg): 4
Vasodilation ([3]; 2.5 mg/kg): 4
Convulsion ([3]; 5 mg/kg): 0
Salivation ([3]; 5 mg/kg): 0
Urination ([3]; 5 mg/kg): 0
Dyspnoea ([3]; 5 mg/kg): 5
Ptosis ([3]; 5 mg/kg): 6
Sedation ([3]; 5 mg/kg): 6
Vasodilation ([3]; 5 mg/kg): 5
Convulsion ([3]; 10 mg/kg): 0
Salivation ([3]; 10 mg/kg): 0
Urination ([3]; 10 mg/kg): 0
Dyspnoea ([3]; 10 mg/kg): 7
Ptosis ([3]; 10 mg/kg): 6
Sedation ([3]; 10 mg/kg): 7
Vasodilation ([3]; 10 mg/kg): 6
ED50 [1, 4]: 7.02 mg/kg

COc1cc(CC(=O)NCCOCc2ccc(C)c(C)c2)ccc1OCCN [Example 3, N-{2-(3,4-dimethylbenzyloxy)ethyl}-4-(2-aminoethoxy)-3-methoxyphenylacetamide]
Convulsion ([3]; 5 mg/kg): 0
Salivation ([3]; 5 mg/kg): 0
Urination ([3]; 5 mg/kg): 0
Dyspnoea ([3]; 5 mg/kg): 4
Ptosis ([3]; 5 mg/kg): 4
Sedation ([3]; 5 mg/kg): 4
Vasodilation ([3]; 5 mg/kg): 4
Convulsion ([3]; 10 mg/kg): 0
Salivation ([3]; 10 mg/kg): 0
Urination ([3]; 10 mg/kg): 0
Dyspnoea ([3]; 10 mg/kg): 4
Ptosis ([3]; 10 mg/kg): 4
Sedation ([3]; 10 mg/kg): 4
Vasodilation ([3]; 10 mg/kg): 4
Convulsion ([3]; 20 mg/kg): 0
Salivation ([3]; 20 mg/kg): 0
Urination ([3]; 20 mg/kg): 0
Dyspnoea ([3]; 20 mg/kg): 4
Ptosis ([3]; 20 mg/kg): 5
Sedation ([3]; 20 mg/kg): 5
Vasodilation ([3]; 20 mg/kg): 4
ED50 [1, 4]: 10.9 mg/kg

COc1cc(CC(=O)NCCOCc2ccc(C)c(C)c2)ccc1O [Example 4, N-{2-(3,4-dimethylbenzyloxy)ethyl}-4-hydroxy-3-methoxyphenylacetamide]
Convulsion ([3]; 1.25 mg/kg): 0
Salivation ([3]; 1.25 mg/kg): 0
Urination ([3]; 1.25 mg/kg): 0
Dyspnoea ([3]; 1.25 mg/kg): 4
Ptosis ([3]; 1.25 mg/kg): 4
Sedation ([3]; 1.25 mg/kg): 4
Vasodilation ([3]; 1.25 mg/kg): 4
Convulsion ([3]; 2.5 mg/kg): 0
Salivation ([3]; 2.5 mg/kg): 0
Urination ([3]; 2.5 mg/kg): 0
Dyspnoea ([3]; 2.5 mg/kg): 5
Ptosis ([3]; 2.5 mg/kg): 6
Sedation ([3]; 2.5 mg/kg): 6
Vasodilation ([3]; 2.5 mg/kg): 4
Convulsion ([3]; 5 mg/kg): 0
Salivation ([3]; 5 mg/kg): 0
Urination ([3]; 5 mg/kg): 0
Dyspnoea ([3]; 5 mg/kg): 6
Ptosis ([3]; 5 mg/kg): 7
Sedation ([3]; 5 mg/kg): 7
Vasodilation ([3]; 5 mg/kg): 5
ED50 [2, 5]: 2.08 mg/kg

COc1cc(CC(=O)NCCSc2ccc(C)cc2)ccc1OCCN [Example 5, N-{2-(4-methylthiophenoxy)ethyl}-4-(2-aminoethoxy)-3-methoxyphenylacetamide]
Convulsion ([3]; 0.63 mg/kg): 0
Salivation ([3]; 0.63 mg/kg): 0
Urination ([3]; 0.63 mg/kg): 0
Dyspnoea ([3]; 0.63 mg/kg): 4
Ptosis ([3]; 0.63 mg/kg): 4
Sedation ([3]; 0.63 mg/kg): 4
Vasodilation ([3]; 0.63 mg/kg): 4
Convulsion ([3]; 1.25 mg/kg): 0
Salivation ([3]; 1.25 mg/kg): 0
Urination ([3]; 1.25 mg/kg): 0
Dyspnoea ([3]; 1.25 mg/kg): 6
Ptosis ([3]; 1.25 mg/kg): 6
Sedation ([3]; 1.25 mg/kg): 6
Vasodilation ([3]; 1.25 mg/kg): 4
Convulsion ([3]; 2.5 mg/kg): 0
Salivation ([3]; 2.5 mg/kg): 0
Urination ([3]; 2.5 mg/kg): 0
Dyspnoea ([3]; 2.5 mg/kg): 6
Ptosis ([3]; 2.5 mg/kg): 6
Sedation ([3]; 2.5 mg/kg): 7
Vasodilation ([3]; 2.5 mg/kg): 5
ED50 [2, 5]: 0.84 mg/kg

COc1cc(CC(=O)NCCSc2ccc(C)c(C)c2)ccc1OCCN [Example 6, N-{2-(3,4-dimethylthiophenoxy)ethyl}-4-(2-aminoethoxy)-3-methoxyphenylacetarnide]
Convulsion ([3]; 0.31 mg/kg): 0
Salivation ([3]; 0.31 mg/kg): 0
Urination ([3]; 0.31 mg/kg): 0
Dyspnoea ([3]; 0.31 mg/kg): 4
Ptosis ([3]; 0.31 mg/kg): 4
Sedation ([3]; 0.31 mg/kg): 4
Vasodilation ([3]; 0.31 mg/kg): 4
Convulsion ([3]; 0.63 mg/kg): 0
Salivation ([3]; 0.63 mg/kg): 0
Urination ([3]; 0.63 mg/kg): 0
Dyspnoea ([3]; 0.63 mg/kg): 4
Ptosis ([3]; 0.63 mg/kg): 5
Sedation ([3]; 0.63 mg/kg): 6
Vasodilation ([3]; 0.63 mg/kg): 4
Convulsion ([3]; 1.25 mg/kg): 0
Salivation ([3]; 1.25 mg/kg): 0
Urination ([3]; 1.25 mg/kg): 0
Dyspnoea ([3]; 1.25 mg/kg): 6
Ptosis ([3]; 1.25 mg/kg): 6
Sedation ([3]; 1.25 mg/kg): 6
Vasodilation ([3]; 1.25 mg/kg): 5
ED50 [2, 5]: 0.48 mg/kg

CC(C)Cc1ccc(C(C)C(=O)O)cc1 (centres unmarked) [Ibuprofen]
ED50 [1, 4]: 11 mg/kg

CCCCCCCC/C=C\CCCCCCCC(=O)NCc1ccc(O)c(OC)c1 [NE-19550, Nvanillyloleamide, reference compound]
ED50 [2]: 15.7 mg/kg

CCCCCCCC/C=C\CCCCCCCC(=O)NCc1ccc(OCCN)c(OC)c1 [NE-21610, reference compound]
ED50 [2, 5]: > 300 mg/kg
ED50 [1, 4]: 38.3 mg/kg

COc1ccc2cc([C@H](C)C(=O)O)ccc2c1 [Naproxen]
ED50 [1, 4]: 17.1 mg/kg

CCCCC1C(=O)N(c2ccccc2)N(c2ccccc2)C1=O [Phenylbutazone]
ED50 [1, 4]: 79.8 mg/kg

From patent US5973201A, “Phenylacetamide derivatives” (Korea Research Institute of Chemical Technology, priority 1995, dated 1999)
